Several values for one entry are separate records, joined by “and”; a condition that tells them apart may be missing. Identical values can stand only once.

The target of this assay is T1, motor domain of human KSP (Eg 5, KNSL1) (Homo sapiens, UniProt P52732).
T1 construct: KSP motor protein (i.e., the KSP motor domain); made in house
T1 sequence (P52732 18-359 limits assumed): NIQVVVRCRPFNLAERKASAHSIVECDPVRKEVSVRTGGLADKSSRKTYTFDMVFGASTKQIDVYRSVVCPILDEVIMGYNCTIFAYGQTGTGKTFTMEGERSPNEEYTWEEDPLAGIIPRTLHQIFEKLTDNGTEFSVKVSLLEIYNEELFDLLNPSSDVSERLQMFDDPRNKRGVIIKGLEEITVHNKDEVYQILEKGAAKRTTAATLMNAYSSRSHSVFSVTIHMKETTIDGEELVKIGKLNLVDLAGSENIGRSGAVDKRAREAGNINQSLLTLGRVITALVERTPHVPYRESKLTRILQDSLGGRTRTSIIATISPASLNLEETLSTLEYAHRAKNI
Briefly: Assay for determining KSP activity (microtubule-stimulated ATPase, Biomol Green). In kind it is biochemical. To be noted: KSP motor domain 45 nM, microtubules 35 μg/mL, ATP, 1 hour RT, absorbance at 630 nm. The source says: This example provides a representative in vitro assay for determining KSP activity in vitro. Purified microtubules obtained from bovine brain were purchased from Cytoskeleton Inc. (Denver, Colo., USA). The motor domain of human KSP (Eg 5, KNSL1) was cloned, expressed, and purified to greater than 95% homogeneity. Biomol Green was purchased from Affinity Research Products Ltd. (Matford Court, Exeter, Devon, United Kingdom). Microtubules and KSP motor protein (i.e., the KSP motor domain) were diluted in assay buffer (20 mM Tris-HCl (pH 7.5), 1 mM MgCl2, 10 mM DTT and 0.25 mg/mL BSA) to a final concentration of 35 μg/mL microtubules and 45 nM KSP. The microtubule/KSP mixture was then pre-incubated at 37° C. for 10 min to promote the binding of KSP to microtubules.
To each well of the testing plate (384-well plate) containing 1.25 μL of inhibitor or test compound in DMSO (or DMSO only in the case of controls) were added 25 μL of ATP solution (ATP diluted to a concentration of 300 μM in assay buffer) and 25 μL of the above-described microtubule/KSP solution. The plates were incubated at RT for 1 hour. Following incubation, 65 μL of Biomol Green (a malachite green-based dye that detects the release of inorganic phosphate) was added to each well. The plates were incubated for an additional 5-10 minutes then the absorbance at 630 nm was determined using a Victor II plate reader. The amount of absorbance at 630 nm corresponded to the amount of KSP activity in the samples. The IC50 of each inhibitor or test compound was then determined based on the decrease in absorbance at 630 nm at each concentration, via nonlinear regression using either XLFit for Excel or Prism data analysis software by GraphPad Software Inc.
`C[C@H](O)C(=O)N(CC[C@H](N)CF)[C@@H](c1nc(-c2cc(Cl)cc(Cl)c2)nn1Cc1ccccc1)C(C)(C)C` [Compound 71, (S)-N-((S)-3-amino-4-fluorobutyl)-N-((R)-1-(1-benzyl-3-(3,5-dichlorophenyl)-1H-1,2,4-triazol-5-yl)-2,2-dimethylpropyl)-2-hydroxypropanamide] had an IC50 greater than 1 µM.
Turning to `C[C@H](O)C(=O)N(CC[C@@H](N)C(F)F)[C@@H](c1nc(-c2cc(F)ccc2F)nn1Cc1cccc(C#N)c1)C(C)(C)C` [Compound 77, (S)-N-((R)-3-amino-4,4-difluorobutyl)-N-((R)-1-(1-(3-cyanobenzyl)-3-(2,5-difluorophenyl)-1H-1,2,4-triazol-5-yl)-2,2-dimethylpropyl)-2-hydroxypropanamide], the 50% inhibitory concentration (IC50) was > 0.1 µM and ≤ 1 µM.
Regarding `C[C@H](O)C(=O)N(CC[C@@H](N)C(F)F)[C@@H](c1nc(-c2cc(F)ccc2F)nn1Cc1cccc(C(F)(F)F)c1)C(C)(C)C` [Compound 78, (S)-N-((R)-3-amino-4,4-difluorobutyl)-N-((R)-1-(3-(2,5-difluorophenyl)-1-(3-(trifluoromethyl)benzyl)-1H-1,2,4-triazol-5-yl)-2,2-dimethylpropyl)-2-hydroxypropanamide], the IC50 was > 0.1 µM and ≤ 1 µM.
On to `Cc1cccc(Cn2nc(-c3cc(F)ccc3F)nc2[C@H](N(CC[C@H](N)C(F)F)C(=O)[C@H](C)O)C(C)(C)C)c1` [Compound 79, (S)-N-((S)-3-amino-4,4-difluorobutyl)-N-((R)-1-(3-(2,5-difluorophenyl)-1-(3-methylbenzyl)-1H-1,2,4-triazol-5-yl)-2,2-dimethylpropyl)-2-hydroxypropanamide], for which the IC50 is no more than 0.1 µM.
In the case of `C[C@H](O)C(=O)N(CC[C@H](N)C(F)F)[C@@H](c1nc(-c2cc(F)ccc2F)nn1Cc1cccc(C(F)(F)F)c1)C(C)(C)C` [Compound 80, (S)-N-((S)-3-amino-4,4-difluorobutyl)-N-((R)-1-(3-(2,5-difluorophenyl)-1-(3-(trifluoromethyl)benzyl)-1H-1,2,4-triazol-5-yl)-2,2-dimethylpropyl)-2-hydroxypropanamide], the IC50 is > 0.1 µM and ≤ 1 µM.
Compound `CC(C)c1cccc(Cn2nc(-c3cc(F)ccc3F)nc2[C@H](N(CC[C@H](N)C(F)F)C(=O)[C@H](C)O)C(C)(C)C)c1` [Compound 85, (S)-N-((S)-3-amino-4,4-difluorobutyl)-N-((R)-1-(3-(2,5-difluorophenyl)-1-(3-isopropylbenzyl)-1H-1,2,4-triazol-5-yl)-2,2-dimethylpropyl)-2-hydroxypropanamide] gave an IC50 greater than 1 µM.
With `CC(C)c1cccc(Cn2nc(-c3cc(F)ccc3F)nc2[C@H](N(CC[C@@H](N)C(F)F)C(=O)[C@H](C)O)C(C)(C)C)c1` [Compound 86, (S)-N-((R)-3-amino-4,4-difluorobutyl)-N-((R)-1-(3-(2,5-difluorophenyl)-1-(3-isopropylbenzyl)-1H-1,2,4-triazol-5-yl)-2,2-dimethylpropyl)-2-hydroxypropanamide] the figure was greater than 1 µM.

A word on the IC50: it is the midpoint of a concentration-inhibition curve. Read a low IC50 as inhibition by little substance.

Source of the values: US7902240B2, “Substituted pyrazole and triazole compounds as KSP inhibitors” (Novartis AG, priority 2006, dated 2011).
